# Like-named read-outs stand apart in the source and are kept apart here.
# Columns and labels:
# KatG = KatG (Mycobacterium tuberculosis, UniProt P9WIE5); test: CO detection: KatG/tBHP activation, CO trapped by deoxyMyoglobin (MbCO, absorbance 540 nm); assay type: biochemical
# [1] = tested on: dos regulon genes (dosR, dosS, fdxA); assay type: cell-based; conditions: Mtb H37Rv treated for 4 hours; Real time PCR
# [2] = tested on: dos regulon genes (dosR, dosS, fdxA); assay type: cell-based, M. bovis BCG
# [3] = tested on: M. turberculosis Dormancy Regulon; conditions: Kumar et al., cited from earlier work
# Chain of KatG (P9WIE5 whole entry): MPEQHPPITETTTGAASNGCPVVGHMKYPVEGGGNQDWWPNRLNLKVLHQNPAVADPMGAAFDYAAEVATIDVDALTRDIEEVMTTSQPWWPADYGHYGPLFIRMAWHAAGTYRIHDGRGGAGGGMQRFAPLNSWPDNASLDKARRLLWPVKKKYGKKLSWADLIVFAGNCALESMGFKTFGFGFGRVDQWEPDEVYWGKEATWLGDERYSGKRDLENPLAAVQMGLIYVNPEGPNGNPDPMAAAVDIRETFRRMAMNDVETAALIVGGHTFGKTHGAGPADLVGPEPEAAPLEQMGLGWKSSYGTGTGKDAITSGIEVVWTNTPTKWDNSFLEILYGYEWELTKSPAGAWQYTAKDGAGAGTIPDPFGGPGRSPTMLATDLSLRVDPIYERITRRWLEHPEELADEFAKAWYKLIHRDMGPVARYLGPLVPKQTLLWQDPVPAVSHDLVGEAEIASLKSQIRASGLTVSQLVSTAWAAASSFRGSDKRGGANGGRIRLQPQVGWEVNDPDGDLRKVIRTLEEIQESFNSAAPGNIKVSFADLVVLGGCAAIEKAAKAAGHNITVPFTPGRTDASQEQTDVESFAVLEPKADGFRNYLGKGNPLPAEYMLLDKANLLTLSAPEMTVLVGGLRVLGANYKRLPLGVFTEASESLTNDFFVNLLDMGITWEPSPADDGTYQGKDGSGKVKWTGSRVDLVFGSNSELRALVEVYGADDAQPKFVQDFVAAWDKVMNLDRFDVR
structure (smiles),measurement,setting,value
"NNC(=O)c1ccncc1 [INH, Isoniazid]",CO produced from activated compound,KatG,"dependent upon dose, time, and KatG"
same,"expression of dos regulon genes (dosR, dosS, fdxA)",[1],significantly increased
same,"expression of dos regulon genes (dosR, dosS, fdxA)",[2],significantly increased
"NC(=O)c1ccc[n+]([C@@H]2O[C@H](COP(=O)([O-])OP(=O)(O)OC[C@H]3O[C@@H](n4cnc5c(N)ncnc54)[C@H](O)[C@@H]3O)[C@@H](O)[C@H]2O)c1 [NAD+, NAD]",formation of MbCO (CO-Mb),"KatG; various dosages, Kat G 22.44 μg per reaction, 1 mM tBHP",inhibited
[C-]#[O+] [CO],+CO/−CO,[3]; gene Rv0079,3.3
same,+CO/−CO,[3]; gene Rv0080,2.9
same,+CO/−CO,[3]; gene Rv0081,2.3
same,+CO/−CO,[3]; gene Rv0669,6
same,+CO/−CO,[3]; gene Rv0670 nroZ,3.2
same,+CO/−CO,[3]; gene Rv0671,2.3
same,+CO/−CO,[3]; gene Rv0672,2.8
same,+CO/−CO,[3]; gene Rv0673 pncB2,1.5
same,+CO/−CO,[3]; gene Rv0674,1.7
same,+CO/−CO,[3]; gene Rv1733,2.3
same,+CO/−CO,[3]; gene Rv1734,2
same,+CO/−CO,[3]; gene Rv1735,1.6
same,+CO/−CO,[3]; gene Rv1736 narX,2.4
same,+CO/−CO,[3]; gene Rv1737 narK2,2.1
same,+CO/−CO,[3]; gene Rv1738,5.8
same,+CO/−CO,[3]; gene Rv1812,1.9
same,+CO/−CO,[3]; gene Rv1813,5.1
same,+CO/−CO,[3]; gene Rv1996,2.4
same,+CO/−CO,[3]; gene Rv1997 ctpF,6.8
same,+CO/−CO,[3]; gene Rv2003,3.3
same,+CO/−CO,[3]; gene Rv2004,4.8
same,+CO/−CO,[3]; gene Rv2005,6.7
same,+CO/−CO,[3]; gene Rv2006 otsB1,2.6
same,+CO/−CO,[3]; gene Rv2007 foxA,7.1
same,+CO/−CO,[3]; gene Rv2028,1.9
same,+CO/−CO,[3]; gene Rv2029 pkfB,6.6
same,+CO/−CO,[3]; gene Rv2030,9.2
same,+CO/−CO,[3]; gene Rv2031 hsoX (acr),5.2
same,+CO/−CO,[3]; gene Rv2032 acg,8.4
same,+CO/−CO,[3]; gene Rv2823 TB31.7,6.8
same,+CO/−CO,[3]; gene Rv2824,7.1
same,+CO/−CO,[3]; gene Rv2825,2.2
same,+CO/−CO,[3]; gene Rv2826 hrp1,10
same,+CO/−CO,[3]; gene Rv2827,4.2
same,+CO/−CO,[3]; gene Rv2828,6.8
same,+CO/−CO,[3]; gene Rv2829,2.6
same,+CO/−CO,[3]; gene Rv2830,5.2
same,+CO/−CO,[3]; gene Rv2831,2.7
same,+CO/−CO,[3]; gene Rv3126,1.8
same,+CO/−CO,[3]; gene Rv3127,2.7
same,+CO/−CO,[3]; gene Rv3130 tgs1,11
same,+CO/−CO,[3]; gene Rv3131,3.3
same,+CO/−CO,[3]; gene Rv3132 dos8 (devS),3.1
same,+CO/−CO,[3]; gene Rv3133 dosR (devR),3
same,+CO/−CO,[3]; gene Rv3134,7.1

# Source: patent US9579381B2 (priority 2012, dated 2017)
